The subject of one assay is H. influenzae HI-3542. As to the kind of experiment: Microbroth dilution MIC testing against H. influenzae. It counts as cell-based. Particulars: HI3542, H. influenzae 3542, Haemophilus Test Medium, 35° C., 16 to 24 hours, read-out: Minimum Inhibitory Concentration H. influenzae 3542. The protocol: (§1) In this example, the in vitro antibacterial activity of selected compounds was determined against S. aureus and H. influenzae. Except for clarifying or modifying statements, MIC testing followed procedures recommended by the NCCLS^1-2 or followed the descriptions cited below.
(§2) Bacterial Cultures At least the following organisms are included in the screen: Staphylococcus aureus SA-1 (UC-76) and H. influenzae HI-3542. Incubations were at 35° C. Stock bacterial cultures were maintained on Tryptic Soy Agar containing 5% Sheep Blood (BD, Becton Dickinson Microbiology Systems, Cockeysville, Md.), anaerobes were maintained on Anaerobic Blood Agar plates—CDC Formulation (BD), and fastidious organisms were maintained on Chocolate Agar II Plates (BD). Specific conditions of handling are listed below.
Haemophilus was maintained on Chocolate Agar II Plates at room temperature in a candle jar providing a 3 5% CO2 atmosphere.
(§3) Standardized Organism Inocula Frozen stock cultures were used as the initial source of organisms for performing microbroth dilution MIC testing. Stock cultures were passed on their standard growth medium for at least 1 growth cycle (18 24 hours) prior to their use.
(§4) Most bacteria, unless otherwise noted, were prepared directly from agar plates in 10 mL aliquots of the appropriate broth medium. Bacterial cultures were adjusted to the opacity of a 0.5 McFarland Standard (optical density value of 0.28-0.33 on a Perkin-Elmer Lambda EZ150 Spectrophotometer Wellesley, Mass., set at a wavelength of 600 nm).). The adjusted cultures were diluted 400 fold (0.25 mL inoculum+100 mL broth) in growth media to produce a starting suspension of approximately 5×10^5 colony forming units (CFU)/mL. Unless otherwise noted, bacterial strains were tested in cation adjusted Mueller Hinton Broth (CAMHB).
Haemophilus influenzae strains were grown on Chocolate Agar II Plates and tested in Haemophilus Test Medium (Remel, Lenexa, Kans.).
(§5) Test Compound (“Drug”) Preparation Compounds were solubilized in DMSO. Drug stock solutions were prepared on the day of testing. Drugs were weight corrected for assay content where necessary.
(§6) Drug Dilution Tray Preparation Microbroth dilution stock plates were prepared in two dilution series, 64 to 0.06 μg drug/mL and 0.25 to 0.00025 μg drug/mL. For the high concentration series, 200 μL of stock solution (2 mg/mL) was added to duplicate rows of a 96-well microtiter plate. This was used as the first well in the dilution series. Serial two-fold decremental dilutions were made using a BioMek FX robot (Beckman Coulter Inc., Fullerton, Calif.) with 10 of the remaining 11 wells, each of which contained 100 μL of the appropriate solvent/diluent. Row 12 contained solvent/diluent only and served as the control. For tube one of the low concentration series, 200 μL of an 8 μg/mL stock was added to duplicate rows of a 96-well plate. Serial two-fold dilutions were made as described above.
(§7) Daughter plates were spotted (3.2 μL/well) from the stock plates listed above using the BioMek FX robot and were either used immediately or frozen at −70° C. until use.
(§8) Plate Inoculation Aerobic organisms were inoculated (100 μL volumes) into the thawed plates using the BioMek FX robot. The inoculated plates were placed in stacks of no more than 5 and covered with an empty plate. These plates were incubated 16 to 24 hours in ambient atmosphere according to CLSI guidelines^2.
Reading the Test After inoculation and incubation, the degree of bacterial growth was estimated visually with the aid of a Test Reading Mirror (Dynex Technologies 220 16) in a darkened room with a single light shining directly through the top of the microbroth tray. The MIC was the lowest concentration of drug that prevented macroscopically visible growth under the conditions of the test. Testing was performed in duplicate. When the MIC values in duplicate tests varied by 1 well (2 fold), the lower values were reported. If the MICs varied by 2 dilutions, the middle value was reported. […]
(In broth dilution the organism is exposed to a series of concentrations in liquid medium.)

For assay [1], the system named is Staphylococcus aureus SA-1 (UC-76). As to the kind of experiment: Microbroth dilution MIC testing against S. aureus. It counts as cell-based. Particulars: S. aureus UC76, CAMHB, 35° C., 16 to 24 hours, read-out: Minimum Inhibitory Concentration S. aureus UC76. The protocol:
as §1, §2, §3, §4, §5, §6, §7, §8
Reading the Test After inoculation and incubation, the degree of bacterial growth was estimated visually with the aid of a Test Reading Mirror (Dynex Technologies 220 16) in a darkened room with a single light shining directly through the top of the microbroth tray. The MIC was the lowest concentration of drug that prevented macroscopically visible growth under the conditions of the test. Testing was performed in duplicate. When the MIC values in duplicate tests varied by 1 well (2 fold), the lower values were reported. If the MICs varied by 2 dilutions, the middle value was reported. Greater than this 4 fold variance called for the test to be repeated, after which a similar determination was applied to all values.

≈ marks a conversion by molar mass, not a printed value.

As for `C[C@H]1CN2c3c(cc(-c4cnccn4)c(F)c3F)CC3(C(=O)NC(=O)NC3=O)[C@@H]2[C@@H](C)O1` (relative stereo) [Compound 1, rel-(2S,4R,4aR)-9,10-difluoro-2,4-dimethyl-8-pyrazin-2-yl-1,2,4,4a-tetrahydro-2′H,6H-spiro[1,4-oxazino[4,3-a]quinoline-5,5′-pyrimidine]-2′,4′,6′(1′H,3′H)-trione], the MIC in the assay on H. influenzae HI-3542 was found to be 1 µg/mL (≈ 2.26 µM).
As to `C[C@H]1CN2c3c(F)cc(-c4cnccn4)cc3CC3(C(=O)NC(=O)NC3=O)[C@@H]2[C@@H](C)O1` (relative stereo) [Compound 15, rel-(2S,4R,4aR)-10-fluoro-2,4-dimethyl-8-pyrazin-2-yl-1,2,4,4a-tetrahydro-2′H,6H-spiro[1,4-oxazino[4,3-a]quinoline-5,5′-pyrimidine]-2′,4′,6′(1′H,3′H)-trione], the MIC worked out at 1 µg/mL (≈ 2.35 µM) in assay [1] and 4 µg/mL (≈ 9.4 µM) in the assay with H. influenzae HI-3542.
In the same order, the values of `C[C@H]1CN2c3c(cc(-c4cnccn4)c(N4CCOCC4)c3F)CC3(C(=O)NC(=O)NC3=O)[C@@H]2[C@@H](C)O1` (relative stereo) [Compound 16, rel-(2S,4R,4aR)-10-fluoro-2,4-dimethyl-9-morpholin-4-yl-8-pyrazin-2-yl-1,2,4,4a-tetrahydro-2′H,6H-spiro[1,4-oxazino[4,3-a]quinoline-5,5′-pyrimidine]-2′,4′,6′(1′H,3′H)-trione] are > 64 µg/mL and > 64 µg/mL.
With `COCCOc1c(-c2cnccn2)cc2c(c1F)N1C[C@H](C)O[C@H](C)[C@H]1C1(C2)C(=O)NC(=O)NC1=O` (relative stereo) [Compound 17, rel-(2S,4R,4aR)-10-fluoro-9-(2-methoxyethoxy)-2,4-dimethyl-8-pyrazin-2-yl-1,2,4,4a-tetrahydro-2′H,6H-spiro[1,4-oxazino[4,3-a]quinoline-5,5′-pyrimidine]-2′,4′,6′(1′H,3′H)-trione], the MIC (in assay [1]; in the assay with H. influenzae HI-3542) was > 64 µg/mL throughout.
Regarding `C[C@H]1CN2c3c(cc(-c4cnccn4)c(OCCF)c3F)CC3(C(=O)NC(=O)NC3=O)[C@@H]2[C@@H](C)O1` (relative stereo) [Compound 18, rel-(2S,4R,4aR)-10-fluoro-9-(2-fluoroethoxy)-2,4-dimethyl-8-pyrazin-2-yl-1,2,4,4a-tetrahydro-2′H,6H-spiro[1,4-oxazino[4,3-a]quinoline-5,5′-pyrimidine]-2′,4′,6′(1′H,3′H)-trione], the MIC (in assay [1]; in the assay on H. influenzae HI-3542) was > 64 µg/mL in each case.
For the molecule `C[C@H]1CN2c3cc(F)c(-c4cnccn4)cc3CC3(C(=O)NC(=O)NC3=O)[C@@H]2[C@@H](C)O1` (relative stereo) [Compound 19, rel-(2S,4R,4aR)-9-dluoro-2,4-dimethyl-8-pyrazin-2-yl-1,2,4,4a-tetrahydro-2′H,6H-spiro[1,4-oxazino[4,3-a]quinoline-5,5′-pyrimidine]-2′,4′,6′(1′H,3′H)-trione], the MIC (in assay [1]; in the assay with H. influenzae HI-3542) was 2 µg/mL (≈ 4.7 µM) in each case.
With `C[C@H]1CN2c3ccc(-c4cnccn4)cc3CC3(C(=O)NC(=O)NC3=O)[C@@H]2[C@@H](C)O1` (relative stereo) [Compound 20, rel-(2S,4R,4aR)-2,4-dimethyl-8-pyrazin-2-yl-1,2,4,4a-tetrahydro-2′H,6H-spiro[1,4-oxazino[4,3-a]quinoline-5,5′-pyrimidine]-2′,4′,6′(1′H,3′H)-trione], the MIC in assay [1] was determined as 4 µg/mL (≈ 9.82 µM); in the assay on H. influenzae HI-3542 it was 2 µg/mL (≈ 4.91 µM).
For the molecule `C[C@H]1CN2c3c(cc(-c4cnccn4)c(F)c3F)CC3(C(=O)NC(=O)NC3=O)[C@@H]2[C@@H](C)O1` [Compound 3, (2S,4R,4aR)-9,10-difluoro-2,4-dimethyl-8-pyrazin-2-yl-1,2,4,4a-tetrahydro-2′H,6H-spiro[1,4-oxazino[4,3-a]quinoline-5,5′-pyrimidine]-2′,4′,6′(1′H,3′H)-trione], the MIC in the assay with H. influenzae HI-3542 was > 64 µg/mL.
